Measured values from ChEMBL document CHEMBL1125139, “Antitumor agents. 113. New 4 beta-arylamino derivatives of 4'-O-demethylepipodophyllotoxin and related compounds as potent inhibitors of human DNA topoisomerase II” (1990).
pIC50: −log10 of the molar value.

Experiments:
Nucleic Acid = assay: Inhibition of cellular protein-DNA complex formation at 10 uM; assay type: functional; conditions: Homo sapiens
[1] = biological target: DNA topoisomerase II (Homo sapiens) (UniProt P11388+Q02880); assay: Inhibitory activity against human DNA topoisomerase II; assay type: protein assay
[2] = Concentration for 50% reduction in cell number after 3-day incubation; assay type: functional; conditions: Homo sapiens, 72 h; read-out: ID50 (the source's name)

Row | Structure (SMILES) | Formation (Nucleic Acid) | ID50 [1] | pIC50 [2]
1 | COc1cc([C@@H]2c3cc4c(cc3[C@@H](Oc3ccc(F)cc3)[C@H]3COC(=O)[C@H]23)OCO4)cc(OC)c1O | 57% | > 100 µM | 6.30
2 | COc1cc([C@@H]2c3cc4c(cc3[C@@H](Nc3cccc(C#N)c3)[C@H]3COC(=O)[C@H]23)OCO4)cc(OC)c1O | 137% | 25 µM | 6.16
3 | COc1cc([C@@H]2c3cc4c(cc3[C@@H](Nc3ccccn3)[C@H]3COC(=O)[C@H]23)OCO4)cc(OC)c1O | 97% | 50 µM | 6.15
4 | COc1cc([C@@H]2c3cc4c(cc3[C@@H](Nc3cc(N)ccc3O)[C@H]3COC(=O)[C@H]23)OCO4)cc(OC)c1O | 11% | > 100 µM | 5.48
5 | COc1cc([C@@H]2c3cc4c(cc3[C@@H](Nc3cnc5ccccc5c3)[C@H]3COC(=O)[C@H]23)OCO4)cc(OC)c1O | 123% | 50 µM | > 6.00
6 | COc1cc([C@@H]2c3cc4c(cc3[C@@H](O[C@@H]3O[C@@H]5CO[C@@H](C)O[C@H]5[C@H](O)[C@H]3O)[C@H]3COC(=O)[C@H]23)OCO4)cc(OC)c1O [ETOPOSIDE] | 100% | – | 6.70
7 | COc1cc([C@@H]2c3cc4c(cc3[C@@H](Nc3cccnc3)[C@H]3COC(=O)[C@H]23)OCO4)cc(OC)c1O | 148% | 50 µM | 6.62
8 | COc1cc([C@@H]2c3cc4c(cc3[C@@H](Oc3ccc(O)cc3)[C@H]3COC(=O)[C@H]23)OCO4)cc(OC)c1O | 34% | 50 µM | > 6.00
9 | COc1cc([C@@H]2c3cc4c(cc3[C@@H](Nc3cccc(O)c3)[C@H]3COC(=O)[C@H]23)OCO4)cc(OC)c1O | 290% | 25 µM | 6.35
10 | COc1cc([C@@H]2c3cc4c(cc3[C@@H](Nc3ccc(N)cc3)[C@H]3COC(=O)[C@H]23)OCO4)cc(OC)c1O | 330% | 5 µM | 6.10
11 | COc1cc([C@@H]2c3cc4c(cc3[C@@H](Nc3cc(OC)c(OC)c(OC)c3)[C@H]3COC(=O)[C@H]23)OCO4)cc(OC)c1O | 47% | > 100 µM | 6.20
12 | COc1cc([C@@H]2c3cc4c(cc3[C@@H](Nc3cc(C(F)(F)F)cc(C(F)(F)F)c3)[C@H]3COC(=O)[C@H]23)OCO4)cc(OC)c1O | 21% | > 100 µM | 5.47
13 | CCOC(=O)c1ccccc1N[C@@H]1c2cc3c(cc2[C@@H](c2cc(OC)c(O)c(OC)c2)[C@H]2C(=O)OC[C@@H]21)OCO3 | 4% | > 100 µM | 6.00
14 | COc1cc([C@@H]2c3cc4c(cc3[C@@H](Nc3ccc(N5CCOCC5)cc3)[C@H]3COC(=O)[C@H]23)OCO4)cc(OC)c1O | 140% | 10 µM | 6.18
15 | COc1cc([C@@H]2c3cc4c(cc3[C@@H](Nc3ccc(C#N)cc3)[C@H]3COC(=O)[C@H]23)OCO4)cc(OC)c1O | 211% | 10 µM | 6.19
16 | COc1cc([C@@H]2c3cc4c(cc3[C@@H](Nc3ccc5c(c3)OCCO5)[C@H]3COC(=O)[C@H]23)OCO4)cc(OC)c1O | 279% | 10 µM | 6.17
17 | COc1cc([C@@H]2c3cc4c(cc3[C@@H](Sc3ccc(O)cc3)[C@H]3COC(=O)[C@H]23)OCO4)cc(OC)c1O | 10% | > 100 µM | > 6.00
18 | COc1cc([C@@H]2c3cc4c(cc3[C@@H](Nc3ccccc3)[C@H]3COC(=O)[C@H]23)OCO4)cc(OC)c1O | 243% | 25 µM | 6.15

Row | Structure (SMILES) | Formation (Nucleic Acid) | ID50 [1] | pIC50 [2]
19 | COc1cc([C@@H]2c3cc4c(cc3[C@@H](Nc3cccc([N+](=O)[O-])c3)[C@H]3COC(=O)[C@H]23)OCO4)cc(OC)c1O | 230% | 50 µM | 6.00
20 | COC(=O)c1cc(N[C@@H]2c3cc4c(cc3[C@@H](c3cc(OC)c(O)c(OC)c3)[C@H]3C(=O)OC[C@@H]32)OCO4)cc(C(=O)OC)c1 | 50% | 25 µM | > 6.00
21 | COC(=O)c1cc(N[C@@H]2c3cc4c(cc3[C@@H](c3cc(OC)c(O)c(OC)c3)[C@H]3C(=O)OC[C@@H]32)OCO4)ccc1O | 83% | 50 µM | 6.00
22 | COc1cc([C@@H]2c3cc4c(cc3[C@@H](Nc3ccc([N+](=O)[O-])cc3)[C@H]3COC(=O)[C@H]23)OCO4)cc(OC)c1O | 323% | 10 µM | 6.31
23 | COc1cc([C@@H]2c3cc4c(cc3[C@@H](Nc3ccc(F)cc3)[C@H]3COC(=O)[C@H]23)OCO4)cc(OC)c1O | 213% | 5 µM | 6.62
24 | COc1cccc(N[C@@H]2c3cc4c(cc3[C@@H](c3cc(OC)c(O)c(OC)c3)[C@H]3C(=O)OC[C@@H]32)OCO4)c1 | 104% | 25 µM | 5.42
25 | COC(=O)c1ccc(N[C@@H]2c3cc4c(cc3[C@@H](c3cc(OC)c(O)c(OC)c3)[C@H]3C(=O)OC[C@@H]32)OCO4)cc1O | 129% | 50 µM | 5.24
26 | COc1cc([C@@H]2c3cc4c(cc3[C@@H](Nc3cccc(N)c3)[C@H]3COC(=O)[C@H]23)OCO4)cc(OC)c1O | 140% | 25 µM | 5.40
27 | COc1cc([C@@H]2c3cc4c(cc3[C@@H](Nc3ccc(Oc5ccccc5)cc3)[C@H]3COC(=O)[C@H]23)OCO4)cc(OC)c1O | 97% | 25 µM | 6.00
28 | CCOC(=O)c1ccc(N[C@@H]2c3cc4c(cc3[C@@H](c3cc(OC)c(O)c(OC)c3)[C@H]3C(=O)OC[C@@H]32)OCO4)cc1 | 207% | 5 µM | 6.08
29 | COC(=O)c1cccc(N[C@@H]2c3cc4c(cc3[C@@H](c3cc(OC)c(O)c(OC)c3)[C@H]3C(=O)OC[C@@H]32)OCO4)c1 | 249% | 50 µM | 5.57
30 | COc1cc([C@@H]2c3cc4c(cc3[C@@H](Nc3cccc(C(C)=O)c3)[C@H]3COC(=O)[C@H]23)OCO4)cc(OC)c1O | 150% | 50 µM | 5.77
31 | COc1ccc(N[C@@H]2c3cc4c(cc3[C@@H](c3cc(OC)c(O)c(OC)c3)[C@H]3C(=O)OC[C@@H]32)OCO4)cc1OC | 180% | 25 µM | > 6.00
32 | COc1cc([C@@H]2c3cc4c(cc3[C@@H](Nc3cc([N+](=O)[O-])ccc3O)[C@H]3COC(=O)[C@H]23)OCO4)cc(OC)c1O | 15% | > 100 µM | 6.00
33 | COc1cc([C@@H]2c3cc4c(cc3[C@@H](Nc3cccc(CO)c3)[C@H]3COC(=O)[C@H]23)OCO4)cc(OC)c1O | 235% | 25 µM | > 6.00
34 | COc1cc([C@@H]2c3cc4c(cc3[C@@H](Nc3ccc5c(c3)OCO5)[C@H]3COC(=O)[C@H]23)OCO4)cc(OC)c1O | 164% | 50 µM | > 6.00
35 | COc1cc([C@@H]2c3cc4c(cc3[C@@H](NCCO)[C@H]3COC(=O)[C@H]23)OCO4)cc(OC)c1O | 121% | – | 5.80
